Assay results reported in patent US20120258053A1, “ORAL CARE COMPOSITIONS FOR USE WITH AN ORAL LIGHT DEVICE” (COLGATE-PALMOLIVE COMPANY, priority 2009, published 2012).
Entries after “also recorded” stand apart in the source; their conditions may differ.

How the values were obtained:
[1] = system: biofilm of A. naeslundi; assay: Light-triggered reduction of bacterial biofilm (24 h old); format: cell-based; conditions: for biofilm reduction compared to light alone: 0.1% concentration, in the presence of light; for Percentage Reduction in Biofilm, Light plus photosensitizer: 0.1% dye incubated 2 min prior to irradiation, wavelength given with each dye, 24 J/cm^2 (200 mW/cm^2 @ 2 min)
Description: Bacterial biofilms (24 h old) were treated with the photosensitizers or photo-triggered actives described in the tables below at a concentration less than their minimum inhibitory concentration (MIC). The actives were either pre-incubated before light exposure for 2 s to 15 min, typically less than 2 min, or administered at the same time the biofilm was exposed to the light. The bacteria were irradiated at a set wavelength for 2 s to 15 min (typically less than 2 min) at an energy dose between 1-450 J/cm^2. Optical power densities typically ranged from 1-500 mW/cm^2. Light was either pulsed or provided in one continuous light exposure. Pulsed light treatments were preferred for high optical energy treatments.
On a biofilm of A. naeslundi, the impact of four “photosensitizers” (0.1% concentration) in the presence of light was evaluated. MIC typically ranged from 0.0001% (w/v) to 1% (w/v). The percent biofilm reduction is tabulated below.

[2] = system: TNFα of HEPM cells stimulated by IL-1β; assay: Cytokine concentration in IL-1β stimulated cell culture after light irradiation with dye; format: cell-based, human; conditions: 9 mW/cm^2, 1.1 J/cm^2
Description: Cells used in this example include human embryonic palatal mesenchymal (HEPM) cells and oral keratinocytes OBA9 cells. The embodiments also can be used with other cells such as human gingival fibroblasts (HGF). Cells were seeded in 24-well plates and cultured until reaching a confluence above 80%. The confluent-stage cells were treated with stimulants such as IL-1β followed by light irradiation alone, or light irradiation combined with GRAS photosensitizing dye. The cells were either pre-incubated in photosensitizing dye before light exposure, or administered at the same time of light exposure. The cells were incubated in photosensitizing dyes for varied amounts of time, the concentration of photosensitizing dyes were varied, and the cell were irradiated with light for varied amounts of time per exposure, as well as irradiation either one time or multiple times, as described below. After irradiation, the cells were incubated at 37° C. The cell culture media was collected after a certain amount of time for cytokine analysis.
The results tabulated below reveal that visible light (various wavelength, 380-700 nm) alone and photosensitizing dye irradiated with visible light (various wavelength, 380-700 nm) have anti-inflammation effect. […]

Row | Compound | biofilm reduction compared to light alone [1] | Percentage Reduction in Biofilm, Light plus photosensitizer [1] [%] | effect on TNFα concentration ([2]; Fast Green 1000 ppm combined with light at 625 nm for 2 minutes) | Cytokine Conc. TNF-α, Il-1β + light + Dye ([2]; HEPM cells, IL-1β stimulated, Fast Green 1000 ppm, 625 nm, 2 minutes, Il-1β alone 9, Il-1β + light 5.8) [pg/mL]
1 | COc1cc(S(=O)(=O)[O-])c(C)cc1N=Nc1c(O)ccc2cc(S(=O)(=O)[O-])ccc12.[Na+].[Na+] [Allura Red, Allura Red AC] | increased biofilm reduction compared to light alone | 55 |  | 
2 | O=S(=O)([O-])c1ccc(/N=N/c2cc(S(=O)(=O)[O-])c3ccccc3c2O)c2ccccc12.[Na+].[Na+] [Chromotrope, Chromotrope FB] |  | 18 |  | 
3 | CCN(Cc1cccc(S(=O)(=O)[O-])c1)c1ccc(C(=C2C=CC(=[N+](CC)Cc3cccc(S(=O)(=O)[O-])c3)C=C2)c2ccccc2S(=O)(=O)[O-])cc1.[Na+].[Na+] [Erioglaucine, Erioglaucine disodium salt] |  | 41 |  | 
4 | CCN(Cc1cccc(S(=O)(=O)[O-])c1)c1ccc(C(=C2C=CC(=[N+](CC)Cc3cccc(S(=O)(=O)[O-])c3)C=C2)c2ccc(O)cc2S(=O)(=O)[O-])cc1.[Na+].[Na+] [Fast Green, Fast Green FCF] | increased biofilm reduction compared to light alone | 43 | can decrease pro-inflammation cytokine TNFα concentration; also recorded: can reduce concentration of TNFα | 3.4
5 | O=C1/C(=C2\Nc3ccc(S(=O)(=O)[O-])cc3C2=O)Nc2ccc(S(=O)(=O)[O-])cc21.[Na+].[Na+] [Indigo Carmine] |  | 30 |  | 
6 | CN(C)c1ccc(C(=C2C=CC(=[N+](C)C)C=C2)c2c(O)c(S(=O)(=O)[O-])cc3cc(S(=O)(=O)[O-])ccc23)cc1.[Na+] [Lissamine Green B] | increased biofilm reduction compared to light alone | 43 |  | 
7 | Cc1cc2nc3c(=O)[nH]c(=O)nc-3n(C[C@H](O)[C@H](O)[C@H](O)CO)c2cc1C [Riboflavin] | increased biofilm reduction compared to light alone | 56 |  | 
8 | O=C([O-])C1=NN(c2ccc(S(=O)(=O)[O-])cc2)C(=O)C1N=Nc1ccc(S(=O)(=O)[O-])cc1.[Na+].[Na+].[Na+] (stereo not shown) [Tartrazine] | increased biofilm reduction compared to light alone | 72 |  | 
9 | Chlorophyllin sodium copper salt |  | 21 |  | 
